smiles,measurement,setting,value
CCOC(=O)CCC(=O)O[C@H]1[C@H](O[C@@H]2[C@@H](C)[C@H](O[C@H]3C[C@@](C)(OC)[C@@H](O)[C@H](C)O3)[C@@H](C)C(=O)O[C@H](CC)[C@@](C)(O)[C@H](O)[C@@H](C)C(=O)[C@H](C)C[C@@]2(C)O)O[C@H](C)C[C@@H]1N(C)C,solubility (mole fraction),"in THF, 288.15 K",0.036
same,solubility (mole fraction),"in THF, 293.15 K",0.0416
same,solubility (mole fraction),"in THF, 298.15 K",0.0491
same,solubility (mole fraction),"in THF, 303.15 K",0.058
same,solubility (mole fraction),"in THF, 308.15 K",0.0684
same,solubility (mole fraction),"in THF, 313.15 K",0.081
same,solubility (mole fraction),"in THF, 318.15 K",0.0977
same,solubility (mole fraction),"in THF, 323.15 K",0.114
same,solubility (mole fraction),"in acetone, 288.15 K",0.0138
same,solubility (mole fraction),"in acetone, 293.15 K",0.0175
same,solubility (mole fraction),"in acetone, 298.15 K",0.0219
same,solubility (mole fraction),"in acetone, 303.15 K",0.0268
same,solubility (mole fraction),"in acetone, 308.15 K",0.0347
same,solubility (mole fraction),"in acetone, 313.15 K",0.0425
same,solubility (mole fraction),"in acetone, 318.15 K",0.0527
same,solubility (mole fraction),"in acetone, 323.15 K",0.0614
same,solubility (mole fraction),"in acetonitrile, 288.15 K",0.0019
same,solubility (mole fraction),"in acetonitrile, 293.15 K",0.00252
same,solubility (mole fraction),"in acetonitrile, 298.15 K",0.00332
same,solubility (mole fraction),"in acetonitrile, 303.15 K",0.00397
same,solubility (mole fraction),"in acetonitrile, 308.15 K",0.00504
same,solubility (mole fraction),"in acetonitrile, 313.15 K",0.00703
same,solubility (mole fraction),"in acetonitrile, 318.15 K",0.00906
same,solubility (mole fraction),"in acetonitrile, 323.15 K",0.0114
same,solubility (mole fraction),"in ethanol, 288.15 K",0.00762
same,solubility (mole fraction),"in ethanol, 293.15 K",0.00966
same,solubility (mole fraction),"in ethanol, 298.15 K",0.0128
same,solubility (mole fraction),"in ethanol, 303.15 K",0.017
same,solubility (mole fraction),"in ethanol, 308.15 K",0.0242
same,solubility (mole fraction),"in ethanol, 313.15 K",0.0323
same,solubility (mole fraction),"in ethanol, 318.15 K",0.0414
same,solubility (mole fraction),"in ethanol, 323.15 K",0.0518
same,solubility (mole fraction),"in isopropanol, 288.15 K",0.00814
same,solubility (mole fraction),"in isopropanol, 293.15 K",0.0106
same,solubility (mole fraction),"in isopropanol, 298.15 K",0.0141
same,solubility (mole fraction),"in isopropanol, 303.15 K",0.0187
same,solubility (mole fraction),"in isopropanol, 308.15 K",0.0249
same,solubility (mole fraction),"in isopropanol, 313.15 K",0.0342
same,solubility (mole fraction),"in isopropanol, 318.15 K",0.0459
same,solubility (mole fraction),"in isopropanol, 323.15 K",0.0556
same,solubility (mole fraction),"in n-hexane, 288.15 K",9.26e-05
same,solubility (mole fraction),"in n-hexane, 293.15 K",0.000129
same,solubility (mole fraction),"in n-hexane, 298.15 K",0.000158
same,solubility (mole fraction),"in n-hexane, 303.15 K",0.000213
same,solubility (mole fraction),"in n-hexane, 308.15 K",0.000286
same,solubility (mole fraction),"in n-hexane, 313.15 K",0.000371
same,solubility (mole fraction),"in n-hexane, 318.15 K",0.000562
same,solubility (mole fraction),"in n-hexane, 323.15 K",0.000698
